Reference: patent US20210244712A1, “METHODS FOR TREATING PATIENTS WITH CANCER HAVING DEFECTS IN CYCLIN D REGULATION” (NysnoBio Ireland DAC, priority 2018, published 2021)
Read-outs that look alike come from different tables or passages of the source.

Tests used:
Format in all cases: cell-based
HCT 116 = test: Cell proliferation assay; details: Homo sapiens, Table 7b, HCT-116, read-out: Cell Proliferation Assay (EC50)
Description: (§1) Measurement of the inhibitive effect of compounds on cancer cell proliferation was performed. The assays were performed under the following conditions: Cells are harvested at a concentration of 4×10^4 cells/ml in media. Volumes of 100 μL/well of these cell suspensions were added to a 96 well plate using a multichannel pipette. Plates were gently agitated to ensure an even dispersion of cells over a given plate. Cells were then incubated at 37° C., 5% CO2 overnight. Following this, 100 μL of compound at varying concentrations was added to wells in triplicate. Control wells are those with 100 μL media containing 0.33% DMSO added to cell suspension (this is the equivalent volume of DMSO found in the highest concentration of drug). Plates were then gently agitated, as above, and incubated at 37° C., 5% CO2 for 72 hrs (control wells have reached 80-90% confluency). Assessment of cell proliferation in the presence of Compounds C and F was determined by the acid phosphatase assay.
(§2) Following the incubation period of 72 hrs, media was removed from the plates. Each well on the plate was washed twice with 100 μL PBS. This was then removed and 100 μL of freshly prepared phosphatase substrate (10 mM p-nitrophenol phosphate in 0.1M sodium acetate, 0.1% triton X-100, pH 5.5) was added to each well. The plates were then incubated in the dark at 37° C. for 2 hours. Color development was monitored during this time. The enzymatic reaction was stopped by the addition of 50 μL of 1N NaOH. The plate was read in a dual beam plate reader at 405 nm with a reference wavelength of 620 nm. The absorbance reading of the latter is subtracted from the former, and the effect of the drug on cell proliferation was then measured as a percentage against the control cells (DMSO), which is taken as 0% inhibition.

TOV-112D = test: Cell proliferation assay; details: Homo sapiens, TOV112D, Table 7b, TOV-112D, read-out: Cell Proliferation Assay (EC50)
Description: as §1, §2

cyclin D1 = test: Western blot of Cyclin D1, Example 6B; details: 250 nM, 24 h, compared to control (DMSO)
Description: Cells were plated at a density of 3×10^5 cells/well for 24 hrs. Representative compounds or DMSO alone was then added to the wells for 24 h at 250 nM (note: Compound F was administered at a concentration of 2 μM). Cells were trypsinised, pelleted, washed ×3 in PBS, and lysed using a 2% SDS lysis solution (Sigma—05030).
Western blot analysis was then carried out to look at Cyclin D1 (Abeam—ab134175), PRK8 (Sigma—P6248), Rb (Abeam—[…]) and GAPDH (Sigma—G9545) levels.

Row | SMILES | EC50 (HCT 116; cells printed in nM) [nM] | EC50 (TOV-112D; cells printed in nM) [nM] | EC50 (HCT 116; cells printed in μM) [nM] | EC50 (TOV-112D; cells printed in μM) [nM] | Cyclin D1 expression (cyclin D1; HCT-116) | Cyclin D1 expression (cyclin D1; TOV-112)
1 | Cc1ccccc1C(=O)Nc1nc(NC(=O)c2ccc(CN)cc2)nn1-c1ccc(OC(F)(F)F)cc1 [Compound 1x, N-(3-(4-(aminomethyl)benzamido)-1-(4-(trifluoromethoxy)phenyl)-1H-1,2,4-triazol-5-yl)-2-methylbenzamide] | 972 | 350 |  |  |  | 
2 | Cc1ccccc1C(=O)Nc1nc(NC(=O)c2ccc(CN)cc2)n(-c2ccc(OC(F)(F)F)cc2)n1 [Compound 2x] |  |  | 3000 | 4000 |  | 
3 | CCCCCCC(=O)NCc1ccc(C(=O)Nc2nc(-c3ncccc3C)nn2-c2ccc(OC(F)(F)F)cc2)cc1 [Compound 3x, 4-(heptanamidomethyl)-N-(3-(3-methylpyridin-2-yl)-1-(4-(trifluoromethoxy)phenyl)-1H-1,2,4-triazol-5-yl)benzamide] | 484 | 349 |  |  |  | 
4 | CCCCCCC(=O)NCc1ccc(C(=O)Nc2nc(-c3ncccc3C)nn2-c2cccc(F)c2)cc1 [Compound 4x, N-(1-(3-fluorophenyl)-3-(3-methylpyridin-2-yl)-1H-1,2,4-triazol-5-yl)-4-(heptanamidomethyl)benzamide] | 295 | 227 |  |  |  | 
5 | Cc1cccnc1-c1nc(NC(=O)c2ccc(CN)cc2)n(-c2ccc(OC(F)(F)F)cc2)n1 [Compound 5x, 4-(aminomethyl)-N-(3-(3-methylpyridin-2-yl)-1-(4-(trifluoromethoxy)phenyl)-1H-1,2,4-triazol-5-yl)benzamide] | 133 | 114 |  |  | reduction of Cyclin D1 expression | reduction of Cyclin D1 expression
6 | Cc1cccnc1-c1nc(NC(=O)c2ccc(CN)cc2)n(-c2cccc(F)c2)n1 [Compound 6x, 4-(aminomethyl)-N-(1-(3-fluorophenyl)-3-(3-methylpyridin-2-yl)-1H-1,2,4-triazol-5-yl)benzamide] |  |  | 2000 | 2000 | reduction of Cyclin D1 expression | reduction of Cyclin D1 expression
7 | Cc1ccccc1C(=O)Nc1nc(-c2ccccc2O)nn1-c1ccc(N2CCNCC2)cc1 [Compound 7x, N-(3-(2-hydroxyphenyl)-1-(4-(piperazin-1-yl)phenyl)-1H-1,2,4-triazol-5-yl)-2-methylbenzamide] | 406 | 285 |  |  | reduction of Cyclin D1 expression | reduction of Cyclin D1 expression
8 | CCCCCCC(=O)N1CCN(c2ccc(-n3nc(-c4ccccc4O)nc3NC(=O)c3ccccc3C)cc2)CC1 [Compound 8x, N-(1-(4-(4-heptanoylpiperazin-1-yl)phenyl)-3-(2-hydroxyphenyl)-1H-1,2,4-triazol-5-yl)-2-methylbenzamide] | 246 | 124 |  |  |  | 
9 | CCCCCCC(=O)NCc1ccc(C(=O)Nc2nc(-c3ccccc3O)nn2-c2ccc(OC(F)(F)F)cc2)cc1 [Compound 9x, 4-(heptanamidomethyl)-N-(3-(2-hydroxyphenyl)-1-(4-(trifluoromethoxy)phenyl)-1H-1,2,4-triazol-5-yl)benzamide] | 121 | 82 |  |  |  | 
10 | NCc1ccc(C(=O)Nc2nc(-c3ccccc3O)nn2-c2ccc(OC(F)(F)F)cc2)cc1 [Compound 10x, 4-(aminomethyl)-N-(3-(2-hydroxyphenyl)-1-(4-(trifluoromethoxy)phenyl)-1H-1,2,4-triazol-5-yl)benzamide] | 108 | 71 |  |  | reduction of Cyclin D1 expression | reduction of Cyclin D1 expression
11 | Cc1ccccc1C(=O)Nc1nc(NC(=O)c2cccc(CN3CCOCC3)c2)nn1-c1ccc(OC(F)(F)F)cc1 [Compound 11x, 2-methyl-N-(3-(3-(morpholinomethyl)benzamido)-1-(4-(trifluoromethoxy)phenyl)-1H-1,2,4-triazol-5-yl)benzamide] | 929 | 774 |  |  | reduction of Cyclin D1 expression | reduction of Cyclin D1 expression
12 | Cc1ccccc1C(=O)Nc1nc(NC(=O)c2ccc(CNC(C)C)cc2)nn1-c1ccc(OC(F)(F)F)cc1 [Compound 12x, N-(3-(4-((isopropylamino)methyl)benzamido)-1-(4-(trifluoromethoxy)phenyl)-1H-1,2,4-triazol-5-yl)-2-methylbenzamide] | 755 | 183 |  |  |  | 
13 | Cc1ccccc1C(=O)Nc1nc(NC(=O)c2cccc(CNC(C)C)c2)nn1-c1ccc(OC(F)(F)F)cc1 [Compound 13x, N-(3-(3-((isopropylamino)methyl)benzamido)-1-(4-(trifluoromethoxy)phenyl)-1H-1,2,4-triazol-5-yl)-2-methylbenzamide] | 426 | 231 |  |  | reduction of Cyclin D1 expression | reduction of Cyclin D1 expression
14 | Cc1ccccc1C(=O)Nc1nc(NC(=O)c2ccc(CN3CCN(C)CC3)cc2)nn1-c1ccc(OC(F)(F)F)cc1 [Compound 14x, 2-methyl-N-(3-(4-((4-methylpiperazin-1-yl)methyl)benzamido)-1-(4-(trifluoromethoxy)phenyl)-1H-1,2,4-triazol-5-yl)benzamide] | 412 | 655 |  |  | reduction of Cyclin D1 expression | reduction of Cyclin D1 expression
15 | Cc1ccccc1C(=O)Nc1nc(NC(=O)c2cccc(CN3CCN(C)CC3)c2)nn1-c1ccc(OC(F)(F)F)cc1 [Compound 15x, 2-methyl-N-(3-(3-((4-methylpiperazin-1-yl)methyl)benzamido)-1-(4-(trifluoromethoxy)phenyl)-1H-1,2,4-triazol-5-yl)benzamide] |  |  | 1000 | 3000 |  | 
16 | Cc1ccccc1C(=O)Nc1nc(NC(=O)c2ccc(CNC(=O)[C@@H]3CCCN3)cc2)nn1-c1ccc(OC(F)(F)F)cc1 [Compound 16x, (S)—N-(4-((5-(2-methylbenzamido)-1-(4-(trifluoromethoxy)phenyl)-1H-1,2,4-triazol-3-yl)carbamoyl)benzyl)pyrrolidine-2-carboxamide] | 412 | 659 |  |  |  | 
